These results are taken from ChEMBL document CHEMBL1201862, “PubChem BioAssay data set” (2004).

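Protocol summary: plate cells (96-well), add compound at 5 concentrations, incubate 48 h, interpolate endpoints linearly. Abbreviation: GI50, concentration required for 50% inhibition of growth.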 Active and inactive are the calls of the source. No stated cut-off is given here; in the data, active = GI50 up to about 1.1 µM and inactive = higher. Where a SMILES comes first, the peptide text is derived from it. The star is where a group is joined. Cbz = O=C(OCc1ccccc1)*; Boc = CC(C)(C)OC(=O)*; Bn = c1ccc(C*)cc1

Test systems include SK-MEL-28; SNB-75; TK-10; CCRF-CEM; SN12C; K562; SK-OV-3; 786-0; HL-60; HT-29; MDA-MB-435; SF-268; SR; T47D; SK-MEL-2; NCI-H522; NCI-H226; ACHN; NCI-H460; Hs-578T.
What all share (assay): DTP human tumour cell line panel, 48 h

Take `COc1ccc(Nc2nc3c([nH]2)c(=O)n(C)c(=O)n3C)cc1`: the GI50 in the assay with SK-MEL-28, in the assay on SNB-75, in the assay on TK-10, in the assay on CCRF-CEM, in the assay with SN12C and with K562 was > 10 µM (inactive) each time. In addition, the GI50 with SK-OV-3, in the assay on 786-0, with HL-60, in the assay on HT-29, in the assay on MDA-MB-435 and in the assay on SF-268 was > 10 µM (inactive) in each case. The GI50 in the assay with SR and with T47D was > 10 µM (inactive) each time.

With `O=C(CCCC(=O)N1CC(CCl)c2ccc([N+](=O)[O-])cc21)N1CC(CCl)c2ccc([N+](=O)[O-])cc21` (centres undefined), the GI50 in the assay with SK-MEL-28 was > 100 µM (inactive); in the assay on SK-MEL-2 it was > 100 µM (inactive); with TK-10, > 100 µM (inactive); in the assay with CCRF-CEM, > 100 µM (inactive); with NCI-H522 it was 71.4 µM (inactive); with SN12C, > 100 µM (inactive). Also, the GI50 with K562, in the assay on NCI-H226, in the assay with SK-OV-3, with 786-0, in the assay on HL-60 and with HT-29 was > 100 µM (inactive) each time. Moreover, the GI50 with MDA-MB-435 was > 100 µM (inactive); in the assay with ACHN, > 100 µM (inactive); with SF-268, > 100 µM (inactive); with SR, 9.1 µM (inactive); in the assay with T47D, > 100 µM (inactive); in the assay with NCI-H460, 38.4 µM (inactive).

As for `CN(C)c1ccc(-c2c(C#N)c(-c3ccccc3)n(NS(=O)(=O)c3ccccc3)c(=O)c2C#N)cc1`, the GI50 in the assay on SK-MEL-28 is 70.8 µM (inactive); in the assay on SNB-75, 48.5 µM (inactive); in the assay with SK-MEL-2 it was 41.6 µM (inactive); with TK-10, 79.6 µM (inactive); in the assay on CCRF-CEM, 26.5 µM (inactive); with NCI-H522, 58.3 µM (inactive). For the same molecule, the GI50 is 68.9 µM (inactive) with SN12C; 49.1 µM (inactive) with K562; > 100 µM (inactive) in the assay on NCI-H226; 67.3 µM (inactive) with SK-OV-3; 69.5 µM (inactive) in the assay with 786-0; 76.7 µM (inactive) with HT-29. Moreover, the GI50 with Hs-578T was 23.1 µM (inactive); with MDA-MB-435 it was 71.4 µM (inactive); in the assay with ACHN, 45.8 µM (inactive); in the assay on SF-268 it was 56 µM (inactive); in the assay on NCI-H460 it was 54.3 µM (inactive).

On to `COc1ccc2nc3n(c2c1)C(c1c(Cl)cccc1Cl)SC3` (centres undefined), for which the GI50 in the assay with SK-MEL-28, with SNB-75, in the assay on SK-MEL-2, in the assay on TK-10, in the assay with CCRF-CEM and in the assay with SN12C was > 100 µM (inactive) throughout. The GI50 in the assay with K562, in the assay with NCI-H226, in the assay on SK-OV-3, in the assay with 786-0, in the assay on HL-60 and in the assay with MDA-MB-435 was > 100 µM (inactive) throughout. For the same molecule, the GI50 in the assay on ACHN, with SR, in the assay on T47D and with NCI-H460 was > 100 µM (inactive) each time.

With `COC(=O)CSc1[nH]c2nc(C)nc(Nc3ccccc3)c2c1C#N`, the GI50 with SK-MEL-28, in the assay on SNB-75, in the assay with TK-10, in the assay with CCRF-CEM, with SN12C and in the assay on K562 was > 10 µM (inactive) throughout. Also, the GI50 in the assay with SK-OV-3, in the assay with 786-0, in the assay on HL-60, in the assay on HT-29, in the assay on MDA-MB-435 and in the assay on SF-268 was > 10 µM (inactive) in each case. The GI50 with SR and with T47D was > 10 µM (inactive) in each case.

`CC1(C(O)c2ccccc2)CN(C(C)(C)C)C(=O)/C1=C\Sc1ccccc1` (centres undefined): the GI50 with SK-MEL-28 was > 100 µM (inactive); in the assay on SK-MEL-2, 21.3 µM (inactive); with TK-10 it was > 100 µM (inactive); with CCRF-CEM, 23.9 µM (inactive); with NCI-H522 it was 2.48 µM (inactive); with SN12C, 33.9 µM (inactive). Besides, the GI50 in the assay with K562 is 42.1 µM (inactive); with SK-OV-3, 44.9 µM (inactive); in the assay with 786-0 it was 46 µM (inactive); in the assay on HL-60 it was 24.7 µM (inactive); in the assay on HT-29, 21.1 µM (inactive); with MDA-MB-435, 30.1 µM (inactive). The GI50 was 64.1 µM (inactive) with ACHN, 1.76 µM (inactive) in the assay on SF-268, 30.3 µM (inactive) in the assay with SR and 13.3 µM (inactive) in the assay on T47D.

Take `CN(C)CCCNc1ncnc2c1ncn2C1OC(CO)C(O)C1O` (centres undefined): the GI50 in the assay on SK-MEL-28, in the assay with SK-MEL-2, with TK-10, in the assay with CCRF-CEM, with NCI-H522 and with SN12C was > 100 µM (inactive) in each case. Further, the GI50 in the assay on K562, in the assay on NCI-H226, with SK-OV-3, in the assay on 786-0, in the assay on HL-60 and in the assay with HT-29 was > 100 µM (inactive) each time. Besides, the GI50 with MDA-MB-435, with ACHN, in the assay with SF-268, in the assay with SR, in the assay on T47D and in the assay with NCI-H460 was > 100 µM (inactive) in each case.

Regarding `CN1CCCCCC(=N\O)/C(=N/O)CCCCC1`, the GI50 with SK-MEL-28, in the assay on SNB-75, in the assay with TK-10, in the assay on CCRF-CEM, in the assay on NCI-H522 and in the assay on SN12C was > 100 µM (inactive) throughout. Besides, the GI50 in the assay with K562, in the assay with NCI-H226, in the assay with 786-0, with HL-60, with HT-29 and in the assay on Hs-578T was > 100 µM (inactive) each time. For the same molecule, the GI50 with MDA-MB-435, in the assay with ACHN, with SF-268, in the assay on SR and in the assay with NCI-H460 was > 100 µM (inactive) in each case.

Consider `COc1cccc2c1C(=O)c1c(O)c3c(c(O)c1C2=O)CC(O)(C(O)CO)CC3OC1CC(N2CCOCC2)C(O)C(C)O1` (centres undefined), for which the concentration for 50% growth inhibition (GI50) in the assay with SK-MEL-28 is 0.00406 µM (active); with SNB-75, 0.00388 µM (active); in the assay with SK-MEL-2, 0.00422 µM (active); in the assay with TK-10 it was 0.00377 µM (active); in the assay with CCRF-CEM, 0.00849 µM (active); in the assay on NCI-H522 it was 0.00273 µM (active). Further, the GI50 was 0.00205 µM (active) in the assay on SN12C; 0.00412 µM (active) in the assay on K562; 0.0118 µM (active) in the assay with NCI-H226; 0.00362 µM (active) with SK-OV-3; 0.0277 µM (active) in the assay with 786-0; 0.00308 µM (active) in the assay with HT-29. The GI50 in the assay on Hs-578T was 0.0146 µM (active); in the assay with MDA-MB-435, 0.00883 µM (active); in the assay on ACHN it was 0.00193 µM (active); in the assay on SF-268, 0.00231 µM (active); with SR, 0.00214 µM (active); in the assay on NCI-H460, < 0.001 µM (active).

`NS(=O)(=O)c1ccc(CNc2nc(-c3cccs3)nc3ccc(I)cc23)cc1`: the GI50 in the assay on SK-MEL-28 is 21.3 µM (inactive); in the assay with SNB-75, 21.6 µM (inactive); with TK-10, 9.16 µM (inactive); with NCI-H522, 14.7 µM (inactive); in the assay with SN12C, 22.9 µM (inactive); with NCI-H226 it was 17.9 µM (inactive). Further, the GI50 in the assay on SK-OV-3 is 22.6 µM (inactive); with 786-0 it was 17.5 µM (inactive); in the assay on HT-29, 19.4 µM (inactive); in the assay with MDA-MB-435, 14.6 µM (inactive); in the assay on ACHN it was 18.4 µM (inactive); with SF-268 it was 23.1 µM (inactive). For the same molecule, the results for the GI50 with SR, with T47D and in the assay on NCI-H460 were 15 µM (inactive), 0.222 µM (active) and 15 µM (inactive), respectively.

Turning to `COc1cc2c(cc1OCCCN1CCOCC1)N=C[C@@H]1CCCN1C2=O`, the GI50 in the assay on SK-MEL-28 was 12.6 µM (inactive); in the assay on SK-MEL-2, 11.2 µM (inactive); in the assay with TK-10, 19.8 µM (inactive); with CCRF-CEM it was 2.75 µM (inactive); with NCI-H522 it was 1.25 µM (inactive); with SN12C it was 23.6 µM (inactive). The GI50 in the assay with K562 was 4.73 µM (inactive); in the assay on NCI-H226 it was 4.66 µM (inactive); with SK-OV-3 it was 10.8 µM (inactive); in the assay with 786-0, 4.16 µM (inactive); in the assay on HL-60, 5.74 µM (inactive); in the assay with HT-29 it was 8.79 µM (inactive). Besides, the GI50 in the assay on Hs-578T was 16.9 µM (inactive); in the assay on MDA-MB-435, 11.8 µM (inactive); with ACHN it was 14 µM (inactive); with SF-268, 7.53 µM (inactive); in the assay with SR it was 3.57 µM (inactive); with NCI-H460, 24.5 µM (inactive).

Consider `CC(C)(C)OC(=O)NC(Cc1ccc(OCc2ccccc2)cc1)C(=O)NC(CCCCNC(=O)OCc1ccccc1)C(=O)O` (centres undefined) (Boc-Tyr(Bn)-Lys(Cbz)-OH; configuration not given here), for which the GI50 in the assay on SK-MEL-28 was 17.4 µM (inactive); with SNB-75, > 100 µM (inactive); in the assay with SK-MEL-2 it was 28 µM (inactive); in the assay on TK-10 it was 67.3 µM (inactive); in the assay with CCRF-CEM, > 100 µM (inactive); in the assay on SN12C it was 30.5 µM (inactive). Moreover, the GI50 with K562 was 42.8 µM (inactive); in the assay on NCI-H226 it was 96.4 µM (inactive); with 786-0, 54.1 µM (inactive); with HL-60, 34.7 µM (inactive); in the assay on HT-29, 62.1 µM (inactive); in the assay on Hs-578T, 69.3 µM (inactive). Also, the GI50 with SR is 28.6 µM (inactive).

The term GI50 denotes the concentration at which growth is held to half of that of the control.
